What was measured:
[1] = biological target: T1, Brachypodium distachyon BdTyrA1, SEQ ID NO: 33, recombinant (Brachypodium distachyon, UniProt A0A2K2DMR9); test: TyrA arogenate dehydrogenase kinetics and tyrosine inhibition (340 nm); type: biochemical
T1 construct: from genomic DNA
T1 sequence (A0A2K2DMR9 539-925): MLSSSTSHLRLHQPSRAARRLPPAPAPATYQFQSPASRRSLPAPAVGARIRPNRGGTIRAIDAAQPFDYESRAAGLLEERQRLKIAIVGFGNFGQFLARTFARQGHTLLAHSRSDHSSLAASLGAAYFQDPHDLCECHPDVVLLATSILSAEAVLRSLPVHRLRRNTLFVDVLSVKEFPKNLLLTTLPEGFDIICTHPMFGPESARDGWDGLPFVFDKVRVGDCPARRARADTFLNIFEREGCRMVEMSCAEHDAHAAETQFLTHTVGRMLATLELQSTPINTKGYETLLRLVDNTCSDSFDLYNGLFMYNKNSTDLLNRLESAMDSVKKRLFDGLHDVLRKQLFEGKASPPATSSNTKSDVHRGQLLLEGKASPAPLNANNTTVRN
From the text: (§1) Next, to study the biochemical properties of grass TyrA enzymes, we generated and characterized recombinant purified TyrA proteins from Brachypodium (BdTyrA) and Sorghum (SbTyrA), two distantly related grass species^43, 44. Whereas TyrA enzymes from dicot plants are generally NADP^+-dependent arogenate dehydrogenases^20, 39, 45, except for NADP^+-prephenate dehydrogenases in the legume family^40, 46, previous reports on the substrate preference of grass TyrA enzymes are inconclusive^17, 19. […] NAD^+-prephenate dehydrogenase activity was absent in all cases, ruling out a significant contamination of the enzyme preparations with the TyrA enzyme from E. coli^47.48.

[2] = biological target: T2, Sorghum bicolor SbTyrA1, SEQ ID NO: 39, recombinant (Sorghum bicolor, UniProt A0A194YLK4); test: as above; type: biochemical
T2 construct: from genomic DNA
T2 sequence (A0A194YLK4 475-836): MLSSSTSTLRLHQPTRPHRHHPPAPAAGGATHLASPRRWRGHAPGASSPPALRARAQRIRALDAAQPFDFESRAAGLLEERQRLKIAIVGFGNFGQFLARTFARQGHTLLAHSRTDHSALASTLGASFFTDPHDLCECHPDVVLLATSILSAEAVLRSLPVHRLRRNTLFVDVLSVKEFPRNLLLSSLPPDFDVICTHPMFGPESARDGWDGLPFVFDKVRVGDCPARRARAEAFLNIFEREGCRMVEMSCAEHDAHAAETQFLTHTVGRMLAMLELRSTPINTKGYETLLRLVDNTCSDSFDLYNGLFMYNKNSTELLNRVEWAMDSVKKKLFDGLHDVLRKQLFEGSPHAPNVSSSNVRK
From the text: as §1

[3] = biological target: T3, Sorghum bicolor SbTyrA2, SEQ ID NO: 41, recombinant (Sorghum bicolor, UniProt C5Z9D2); test: as above; type: biochemical
T3 construct: from genomic DNA
T3 sequence (C5Z9D2 53-389): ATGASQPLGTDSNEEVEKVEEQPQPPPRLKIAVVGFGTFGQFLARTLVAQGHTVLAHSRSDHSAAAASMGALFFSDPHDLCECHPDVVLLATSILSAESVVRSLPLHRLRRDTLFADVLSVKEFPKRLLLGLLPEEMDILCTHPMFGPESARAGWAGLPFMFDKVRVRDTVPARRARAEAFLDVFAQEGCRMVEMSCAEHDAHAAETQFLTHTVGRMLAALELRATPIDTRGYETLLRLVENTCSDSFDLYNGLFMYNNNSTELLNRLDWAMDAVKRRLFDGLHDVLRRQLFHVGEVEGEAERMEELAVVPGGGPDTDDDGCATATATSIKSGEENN
From the text: as §1

[4] = biological target: T4, Sorghum bicolor SbTyrAnc (non-canonical TyrA), SEQ ID NO: 43, recombinant (Sorghum bicolor, UniProt C5Z447); test: as above; type: biochemical
T4 construct: from cDNA
T4 sequence (C5Z447 56-382): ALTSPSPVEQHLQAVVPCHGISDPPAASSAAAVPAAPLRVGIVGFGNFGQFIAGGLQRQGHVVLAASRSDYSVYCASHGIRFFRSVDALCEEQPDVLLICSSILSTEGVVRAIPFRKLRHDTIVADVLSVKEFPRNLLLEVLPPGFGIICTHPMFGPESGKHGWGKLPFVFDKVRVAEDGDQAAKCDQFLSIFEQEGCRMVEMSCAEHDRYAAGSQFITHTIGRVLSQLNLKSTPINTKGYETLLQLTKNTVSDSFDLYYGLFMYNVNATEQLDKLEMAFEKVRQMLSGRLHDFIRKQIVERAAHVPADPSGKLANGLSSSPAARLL
From the text: as §1

[5] = biological target: Brachypodium distachyon BdDHS1b, SEQ ID NO: 3, recombinant (Brachypodium distachyon, UniProt I1H4W3); test: DHS activity: kinetics and effector inhibition; type: biochemical; conditions: read-out: inhibition at 0.5 mM
Chain of Brachypodium distachyon BdDHS1b, SEQ ID NO: 3, recombinant (I1H4W3 37-542): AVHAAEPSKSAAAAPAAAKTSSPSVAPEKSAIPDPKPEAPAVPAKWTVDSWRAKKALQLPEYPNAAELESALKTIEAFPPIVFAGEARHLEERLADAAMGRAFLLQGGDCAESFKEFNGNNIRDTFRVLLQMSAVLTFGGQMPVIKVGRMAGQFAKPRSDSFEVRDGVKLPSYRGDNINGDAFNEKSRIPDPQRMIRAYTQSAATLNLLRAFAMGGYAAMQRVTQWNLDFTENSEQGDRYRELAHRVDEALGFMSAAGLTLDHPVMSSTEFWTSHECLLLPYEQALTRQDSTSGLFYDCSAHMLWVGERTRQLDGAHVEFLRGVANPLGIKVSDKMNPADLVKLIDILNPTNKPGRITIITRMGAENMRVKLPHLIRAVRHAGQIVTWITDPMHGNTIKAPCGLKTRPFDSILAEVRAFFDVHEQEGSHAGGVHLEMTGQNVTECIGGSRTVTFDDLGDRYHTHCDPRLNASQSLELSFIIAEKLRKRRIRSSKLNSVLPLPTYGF
From the text: (§2) To examine their functional properties, the recombinant DHS enzymes of Brachypodium were produced and characterized in vitro.
(§3) As recent studies have shown that plant DHS enzymes are feedback-inhibited by multiple effector molecules^15, 16, we tested the effect of AAAs and another 14 related metabolites, including various intermediates of the shikimate pathway and the pathways downstream of AAAs, on Brachypodium DHS enzymes.
(§4) The DHS assay for UHPLC-MS quantification was set up using the same settings as described in the previous paragraph for the UV-based DHS assay, which guaranteed at least 10 minutes of reaction linearity. After a 10-minute incubation, 20 μL of the reactions (out of a total volume of 50 μL) were mixed into 80 μL of methanol, vortexed and transferred to vials for injection. Analysis of DAHP by UHPLC-MS was conducted using the same chromatographic settings as described for the UHPLC-MS analysis of soluble metabolites and compared with an authentic DAHP standard (Sta. Cruz biotechnology, cat. no. sc-216432).

[6] = biological target: Brachypodium distachyon BdDHS2, SEQ ID NO: 5, recombinant (Brachypodium distachyon, UniProt I1I809); test: DHS activity: kinetics and effector inhibition; type: biochemical; conditions: read-out: inhibition at 0.5 mM
Chain of Brachypodium distachyon BdDHS2, SEQ ID NO: 5, recombinant (I1I809 31-503): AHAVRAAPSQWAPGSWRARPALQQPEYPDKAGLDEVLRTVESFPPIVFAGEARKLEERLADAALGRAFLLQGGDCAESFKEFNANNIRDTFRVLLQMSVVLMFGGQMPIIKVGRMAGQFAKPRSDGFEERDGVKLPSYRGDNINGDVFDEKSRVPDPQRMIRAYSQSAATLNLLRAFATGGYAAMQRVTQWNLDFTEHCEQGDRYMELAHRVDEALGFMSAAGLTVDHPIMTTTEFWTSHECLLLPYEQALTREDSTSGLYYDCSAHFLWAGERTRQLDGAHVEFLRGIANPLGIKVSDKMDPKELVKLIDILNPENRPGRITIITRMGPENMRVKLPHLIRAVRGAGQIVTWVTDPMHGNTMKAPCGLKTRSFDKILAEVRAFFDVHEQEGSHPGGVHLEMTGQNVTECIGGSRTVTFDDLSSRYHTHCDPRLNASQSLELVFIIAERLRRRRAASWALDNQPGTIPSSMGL
From the text: as §2, §3, §4

[7] = tested on: recombinant Sorghum DHS enzymes; test: DHS activity: effector inhibition; type: biochemical, Sorghum bicolor; conditions: 0.5 mM (FIG. 17)
Method: In contrast, BdDHS1b was not inhibited by arogenate even up to 2.5 mM. In fact, DHS1b activity increased in the presence of high concentrations of arogenate (FIG. 4F), likely due to high concentrations of contaminant NaCl present in the arogenate preparation (FIG. 16). Under acidic conditions, arogenate is known to undergo a spontaneous dehydration and decarboxylation into […]. […] Like in Brachypodium DHS enzymes, 0.5 mM arogenate inhibited SbDHS1a and SbDHS2 at ˜50% and ˜40%, respectively, but had no effect on SbDHS1b.

[8] = tested on: grass DHS enzymes; test: DHS activity: effector inhibition; type: biochemical; conditions: 0.5 mM (FIGS. 4, 15, 17)
Method: as §3, §4

For `N[C@@H](Cc1ccc(O)cc1)C(=O)O` [tyrosine], the Ki [1] was 46 ± 3 µM, the “activity at 200 μM of tyrosine” value ([1]; 200 μM tyrosine) was “fully inactive” and the “mode of feedback inhibition by tyrosine” value ([1]; FIG. 12) was “competitive”. For the same compound, the IC50 ([1]; IC50 (tyrosine), 0.5 mM arogenate, 1 mM NADP^+) was 66 ± 2 µM, the IC50 [2] was 71 µM and the Ki [2] was 53 ± 10 µM. It also gave an IC50 [3] of 47 ± 23 µM, a Ki [3] of 36 ± 13 µM and an IC50 [4] of 406 ± 85 µM. For the same compound, the Ki [4] was 137 ± 44 µM, the inhibition at 500 µM [5] was roughly 10% and the inhibition at 500 µM [6] was roughly 10%. The “inhibition at 0.5 mM” value [7] was “no strong inhibition” and the “effect on grass DHS at 0.5 mM” value [8] was “little effect”.
